The text below walks through data of patent publication US10752613B2, “Compounds and their use for reducing uric acid levels” (Acquist LLC, priority 2016, dated 2020).

Entries after “also recorded” stand apart in the source; their conditions may differ.

This assay has as its target xanthine oxidase (Homo sapiens (Human), UniProt P47989). Kind of assay: Fluorescence-based xanthine oxidase activity assay. Type of assay: biochemical. To be noted: for IC50: fluorescence-based assay, triplicate, 10 concentrations; for Xanthine oxidase inhibition compared with allopurinol: comparison in words.

Chain of xanthine oxidase (P47989 whole entry, species assumed): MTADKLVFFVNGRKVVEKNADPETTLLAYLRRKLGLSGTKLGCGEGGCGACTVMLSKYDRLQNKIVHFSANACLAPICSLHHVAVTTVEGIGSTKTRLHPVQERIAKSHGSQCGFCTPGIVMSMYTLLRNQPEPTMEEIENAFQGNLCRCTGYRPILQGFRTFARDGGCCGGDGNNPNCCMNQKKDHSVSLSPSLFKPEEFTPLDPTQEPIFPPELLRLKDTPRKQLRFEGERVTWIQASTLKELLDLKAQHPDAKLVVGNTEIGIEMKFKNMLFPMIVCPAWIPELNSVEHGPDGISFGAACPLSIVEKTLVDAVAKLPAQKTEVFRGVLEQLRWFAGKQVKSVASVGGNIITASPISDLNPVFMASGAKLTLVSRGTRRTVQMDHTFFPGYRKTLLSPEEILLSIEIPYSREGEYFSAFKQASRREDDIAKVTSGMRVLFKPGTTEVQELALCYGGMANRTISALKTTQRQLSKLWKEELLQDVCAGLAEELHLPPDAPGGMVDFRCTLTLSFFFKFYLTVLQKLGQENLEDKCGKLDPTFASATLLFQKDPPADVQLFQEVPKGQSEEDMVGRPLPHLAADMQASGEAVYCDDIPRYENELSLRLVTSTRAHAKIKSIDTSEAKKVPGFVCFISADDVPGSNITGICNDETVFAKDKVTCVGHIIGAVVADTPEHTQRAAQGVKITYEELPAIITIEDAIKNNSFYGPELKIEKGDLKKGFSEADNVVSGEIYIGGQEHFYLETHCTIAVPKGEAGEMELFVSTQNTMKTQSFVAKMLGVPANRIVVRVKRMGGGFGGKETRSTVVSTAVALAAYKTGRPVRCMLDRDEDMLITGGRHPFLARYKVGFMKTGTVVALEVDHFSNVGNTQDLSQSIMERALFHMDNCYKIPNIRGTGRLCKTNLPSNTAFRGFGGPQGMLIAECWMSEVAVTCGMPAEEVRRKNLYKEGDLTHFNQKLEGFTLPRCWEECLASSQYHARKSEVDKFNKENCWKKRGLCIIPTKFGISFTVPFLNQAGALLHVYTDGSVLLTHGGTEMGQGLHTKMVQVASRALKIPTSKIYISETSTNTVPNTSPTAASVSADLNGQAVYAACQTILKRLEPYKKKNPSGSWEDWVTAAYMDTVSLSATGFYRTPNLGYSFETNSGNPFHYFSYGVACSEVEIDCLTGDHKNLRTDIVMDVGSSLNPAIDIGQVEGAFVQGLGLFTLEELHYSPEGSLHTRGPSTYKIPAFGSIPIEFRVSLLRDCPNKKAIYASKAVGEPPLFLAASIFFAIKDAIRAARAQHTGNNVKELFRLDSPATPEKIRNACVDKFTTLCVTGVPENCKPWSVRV

As for `O=C(Nc1ccc(-c2cn[nH]c2C(F)(F)F)cc1)c1c(O)[nH]c(=O)[nH]c1=O` [Formula (Ij), 6-hydroxy-2,4-dioxo-N-(4-(5-(trifluoromethyl)-1H-pyrazol-4-yl)phenyl)-1,2,3,4-tetrahydropyrimidine-5-carboxamide], half-maximal inhibition (IC50) required 16.3 µM.

Compound `O=C(Nc1ccc(-n2cc(C(F)(F)F)cn2)cc1)c1c(O)[nH]c(=O)[nH]c1=O` [Formula (Ik), 6-hydroxy-2,4-dioxo-N-(4-(4-(trifluoromethyl)-1H-pyrazol-1-yl)phenyl)-1,2,3,4-tetrahydropyrimidine-5-carboxamide] displayed an IC50 of 68 µM.

Regarding `O=C(Nc1ccc(-c2nn[nH]c2-c2ccccc2)cc1)c1c(O)[nH]c(=O)[nH]c1=O` [Formula (Ic), 6-hydroxy-2,4-dioxo-N-(4-(4-phenyl-1H-1,2,3-triazol-5-yl)phenyl)-1,2,3,4-tetrahydropyrimidine-5-carboxamide], 12.2 µM corresponded to half-maximal inhibition (IC50).

`O=C(Nc1ccc(-c2[nH]ncc2C(F)(F)F)cc1)c1c(O)[nH]c(=O)[nH]c1=O` [Formula (Im), 6-hydroxy-2,4-dioxo-N-(4-(4-(trifluoromethyl)-1H-pyrazol-5-yl)phenyl)-1,2,3,4-tetrahydropyrimidine-5-carboxamide] registered an IC50 of 25.2 µM.

For the compound `O=C(Nc1ccc(-c2nc(C(F)(F)F)n[nH]2)cc1)c1c(O)[nH]c(=O)[nH]c1=O` [Formula (Ie), 6-hydroxy-2,4-dioxo-N-(4-(3-(trifluoromethyl)-1H-1,2,4-triazol-5-yl)phenyl)-1,2,3,4-tetrahydropyrimidine-5-carboxamide], inhibition was half-maximal at 14.5 µM (IC50).

`O=C(Nc1ccc(-c2cc(O)n[nH]2)cc1)c1c(O)[nH]c(=O)[nH]c1=O` [Formula (Ii), 6-hydroxy-N-(4-(3-hydroxy-1H-pyrazol-5-yl)phenyl)-2,4-dioxo-1,2,3,4-tetrahydropyrimidine-5-carboxamide]: the “Xanthine oxidase inhibition compared with allopurinol” value was “more potent inhibitors of xanthine oxidase than allopurinol” and half-maximal inhibition (IC50) was put at 1.3 µM.

As to `O=C(Nc1ccc(-c2c[nH]nn2)c(C(F)(F)F)c1)c1c(O)[nH]c(=O)[nH]c1=O` [Formula (Ig), N-(4-(1H-1,2,3-triazol-5-yl)-3-(trifluoromethyl)phenyl)-6-hydroxy-2,4-dioxo-1,2,3,4-tetrahydropyrimidine-5-carboxamide], the “Xanthine oxidase inhibition compared with allopurinol” value was “comparable to allopurinol” and the IC50 is 2.2 µM.

`O=C(Nc1ccc(-c2cc(C(F)(F)F)n[nH]2)cc1)c1c(O)[nH]c(=O)[nH]c1=O` [Formula (Il), 6-hydroxy-2,4-dioxo-N-(4-(3-(trifluoromethyl)-1H-pyrazol-5-yl)phenyl)-1,2,3,4-tetrahydropyrimidine-5-carboxamide] had an IC50 of 67.9 µM.

Regarding `O=C(Nc1cccc(-c2cn[nH]n2)c1)c1c(O)[nH]c(=O)[nH]c1=O` [Formula (Ia), N-(3-(1H-1,2,3-triazol-5-yl)phenyl)-6-hydroxy-2,4-dioxo-1,2,3,4-tetrahydropyrimidine-5-carboxamide], the IC50 came out at 6.5 µM.

For `O=C(Nc1ccc(-c2c[nH]nn2)cc1C(F)(F)F)c1c(O)[nH]c(=O)[nH]c1=O` [Formula (Ih), N-(4-(1H-1,2,3-triazol-5-yl)-2-(trifluoromethyl)phenyl)-6-hydroxy-2,4-dioxo-1,2,3,4-tetrahydropyrimidine-5-carboxamide], the “Xanthine oxidase inhibition compared with allopurinol” value is “more potent inhibitors of xanthine oxidase than allopurinol; also recorded: comparable to allopurinol” and the IC50 amounted to 1.2 µM.

Take `O=C(Nc1ccc(-c2cn[nH]c2)cc1)c1c(O)[nH]c(=O)[nH]c1=O` [Formula (If), N-(4-(1H-pyrazol-4-yl)phenyl)-6-hydroxy-2,4-dioxo-1,2,3,4-tetrahydropyrimidine-5-carboxamide]: the IC50 amounted to 70.1 µM.

The term IC50 denotes the concentration needed to halve the response being measured. Low readings indicate greater potency, high ones weaker potency.
